{
  "source": "patent US20220251610A1",
  "about": "“Prehydrolysate Fermentability in Biomass Pretreatment” (University of Cincinnati, priority 2021, published 2022)",
  "key": {"Saccharomyces cerevisiae": {"tested_on": "Saccharomyces cerevisiae", "assay": "Yeast fermentation of prehydrolysates from dilute acid pretreatment of aspen with nucleophilic additives", "assay_type": "cell-based", "conditions": "for time at which glucose was completely consumed: 4% (w/w of dry biomass) additive in dilute acid pretreatment, glucose about 20 g/L; for final ethanol concentration / glucose consumption rate / volumetric ethanol productivity: 4% additive in pretreatment; for final ethanol concentration: 48 h fermentation; for glucose consumption rate / volumetric ethanol productivity: first 6 h of fermentation", "protocol": "This analysis was carried out according to the NREL protocol. All pretreatment experiments were carried out in a Parr batch pressure vessel (model of 4520 of 2.0 L of capacity) (Parr Instrument Co., Moline, Ill.). […] All the pretreatment processes were conducted at 170° C. in 60 min. After pretreatment, the stirred reactor was quenched in a bucket with cold water. The slurry after pretreatment was separated into solid fraction and liquid fraction by vacuum filtration. The liquid fraction (prehydrolysates) was stored at 4° C. and used for subsequent analyses and fermentation. The pretreated substrates were washed with 560 mL warm water at least three times and collected by vacuum filtration. Fleischmann's pure dry yeast, Saccharomyces cerevisiae was stored at 4° C. and used for the ethanol fermentation. […] The concentration of yeast suspensions was determined by UV-spectrophotometer at 600 nm. […] Batch fermentation was taking place in a 250 mL flask with 50 mL prehydrolysates without any extra nutrients. […] Moreover, excessive CaCO3 was added to adjust the pH of prehydrolysates to 6. Then, the solution was filtered to remove CaCO3 and other impurities through the membrane filter (0.22 μm). All fermentation experiments were incubated at 30° C. and 150 rpm for 48 h in an incubator shaker (E24, New Brunswick Scientific). […] Fermentation was conducted in duplicate. The volumetric ethanol productivity (QEtOH) was calculated based on the produced ethanol in the first 6 h of fermentation as described previously. […] The sugar concentrations were detected by an Agilent 1260 HPLC system equipped with a Bio-Rad HPX-87P column (300×7.8 mm) connected to a refractive index detector (RID-10A). […] The column temperature and detector temperature were kept at 80, and 45° C., respectively. […] To examine whether adding nucleophilic additives in pretreatment can enhance prehydrolysate fermentability, cysteine, histidine, soy protein isolate (SPI) and bovine serum albumin (BSA) were added in the dilute acid pretreatment of aspen."}, "[1]": {"conditions": "Xylan 1.67 g/L; cited from earlier work"}},
  "data": [
    {"compound": "N[C@@H](CS)C(=O)O", "note": "[cysteine]", "values": [
      {"measurement": "time at which glucose was completely consumed", "setting": "Saccharomyces cerevisiae", "value": 24, "unit": "h"},
      {"measurement": "final ethanol concentration", "setting": "Saccharomyces cerevisiae", "value": 8.87, "unit": "g/L"},
      {"measurement": "glucose consumption rate", "setting": "Saccharomyces cerevisiae", "value": 1.35, "unit": "g/L/h"},
      {"measurement": "volumetric ethanol productivity", "setting": "Saccharomyces cerevisiae", "value": 0.51, "unit": "g/L/h"}
    ]},
    {"compound": "Xylan", "values": [
      {"measurement": "reduction of the initial hydrolysis rate of Avicel", "setting": "[1]", "value": 34.5, "unit": "%"}
    ]},
    {"compound": "N[C@@H](Cc1c[nH]cn1)C(=O)O", "note": "[histidine]", "values": [
      {"measurement": "time at which glucose was completely consumed", "setting": "Saccharomyces cerevisiae", "value": 6, "unit": "h"},
      {"measurement": "final ethanol concentration", "setting": "Saccharomyces cerevisiae", "value": 8.69, "unit": "g/L"},
      {"measurement": "glucose consumption rate", "setting": "Saccharomyces cerevisiae", "value": 3.22, "unit": "g/L/h"},
      {"measurement": "volumetric ethanol productivity", "setting": "Saccharomyces cerevisiae", "value": 1.44, "unit": "g/L/h"}
    ]}
  ]
}
